Read-outs that look alike come from different tables or passages of the source.
Key:
[1] = biological target: T1, HDAC8 (Homo sapiens, UniProt Q9BY41); experiment: HDAC-Glo assay; assay type: biochemical; set-up: purchased BPS Bioscience 50008; conditions: read-out: log EC50 from dose-dependent HDAC inhibition curves (converted)
T1 sequence (Q9BY41 1-377): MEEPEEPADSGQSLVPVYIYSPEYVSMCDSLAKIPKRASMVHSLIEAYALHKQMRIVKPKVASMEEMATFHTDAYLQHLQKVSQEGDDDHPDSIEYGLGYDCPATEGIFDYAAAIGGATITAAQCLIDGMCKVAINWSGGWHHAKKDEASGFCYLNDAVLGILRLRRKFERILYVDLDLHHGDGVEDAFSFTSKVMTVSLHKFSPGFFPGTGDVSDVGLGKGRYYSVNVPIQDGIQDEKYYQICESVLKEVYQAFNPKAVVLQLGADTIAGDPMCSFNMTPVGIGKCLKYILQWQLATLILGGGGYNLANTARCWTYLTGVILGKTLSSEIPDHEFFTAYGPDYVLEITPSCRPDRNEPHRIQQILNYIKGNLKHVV
Protocol: To validate the inhibition of HDACs by LA and LM and elaborate on the structure-activity relationship (SAR) of enantiomers as well as oxidized versus reduced forms of the molecules, we performed enzyme activity assays for recombinant HDAC1,2,3,6,8 as well as FRET-based binding assay for recombinant HDAC10.
The experiments were performed according to ref. [48]. […] Drug dosing was performed with a D300e Digital Dispenser (Tecan). HDACs (7 ng/mL for HDAC1, 25 ng/mL for HDAC2, 200 ng/mL for HDAC3/Ncor2 complex, 100 ng/mL for HDAC6, 200 ng/mL for HDAC8) and inhibitors were incubated together at room temperature (RT) for 30 min. After the addition of the HDAC-Glo™ I/II reagent, plates were shaken (800 rpm orbital shaker, 30 s), centrifuged (300 g, 1 min), and incubated at RT for 30 min. Luminescence was detected with a CLARIOstar (BMG Labtech) plate reader.

[2] = biological target: HDAC2 (Homo sapiens, UniProt Q92769); experiment: Chemoproteomic competition pulldown assay; assay type: binding; set-up: endogenous in cells; host or cells: SW620, MV4-11, A549 lysates
Chain of HDAC2 (Q92769 whole entry): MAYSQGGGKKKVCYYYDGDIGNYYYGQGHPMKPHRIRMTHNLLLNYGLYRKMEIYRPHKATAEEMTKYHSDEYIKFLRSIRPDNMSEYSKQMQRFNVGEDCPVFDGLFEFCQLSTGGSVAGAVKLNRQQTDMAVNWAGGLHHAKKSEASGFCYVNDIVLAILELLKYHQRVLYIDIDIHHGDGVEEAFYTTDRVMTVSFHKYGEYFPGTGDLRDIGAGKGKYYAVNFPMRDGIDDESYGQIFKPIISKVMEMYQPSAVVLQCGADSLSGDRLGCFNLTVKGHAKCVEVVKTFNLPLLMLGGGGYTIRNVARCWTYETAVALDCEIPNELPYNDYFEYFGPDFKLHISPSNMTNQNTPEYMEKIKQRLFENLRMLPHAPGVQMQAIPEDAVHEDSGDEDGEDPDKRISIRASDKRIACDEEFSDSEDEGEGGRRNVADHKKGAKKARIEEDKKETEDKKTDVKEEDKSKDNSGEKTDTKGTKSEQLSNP
Protocol: (§1) To identify proteins directly bound by lipoic acid, we employed a chemoproteomic competition assay. Briefly, (R/S)-LA was immobilized on sepharose beads via an amidation reaction to form an affinity matrix (abbreviated as iL; Fig. 1a). This affinity matrix can be incubated with cell lysate to pull down potential LA or LM target proteins and identify these targets via bottom-up proteomics. In a competition assay, free LA or LM were incubated with lysate at different concentrations before pulling down and quantifying target proteins. […] (Fig. 1b, see “Methods” for details). […] The lysate buffer used in this assay contains 1 mM DTT to mimic the intracellular reductive milieu and to reduce lipoic acid and LM. […] Additional competition assays performed in lung adenocarcinoma cell A549 lysate also identified HDAC1, HDAC2, and HDAC6 as targets (Supplementary Fig. 1b). Amongst the three cell lines tested, HDACs were the only confidently identified targets across the 1500–3000 proteins quantified in these assays. […] We validated the results by analogous pulldown competition assays using two other affinity matrices prepared via the immobilization of either the HDAC inhibitor Quisinostat (iQ) and an analog of the class IIa HDAC inhibitor Bürli’s 31[14] (iC)[12]. We have previously shown that these affinity matrices specifically bind to the active sites of HDACs and have used them for HDACi selectivity profiling. Indeed, binding of (R/S)-LA and (R/S)-LM to HDAC1, HDAC2, HDAC3, HDAC6, and, to a lesser extent, HDAC8 was confirmed in these assays (Supplementary Fig. 1c, d). No binding to class IIa HDACs or the recently discovered common HDAC inhibitor off-target MBLAC2 was observed (Supplementary Fig. 1e)[12]. […] This observation might reflect electrostatic repulsion between the HDAC10 active site gate-keeper glutamic acid residues[15],[16] and the terminal carboxylic acid of LA.
(§2) To assess the degree of protein depletion from lysates by the affinity matrix, a second pulldown (PDPD) with fresh beads was performed using the unbound protein fraction from the vehicle control flow through. The beads were washed (1 × 1 mL of lysis buffer without inhibitors and only 0.4% Igepal, 2 × 2 mL of lysis buffer without inhibitors and only 0.2% Igepal), and captured proteins were denatured with 8 M urea buffer, alkylated with 55 mM chloroacetamide and digested with Trypsin according to standard procedures. The resulting peptides were desalted on a C18 filter plate (Sep-Pak® tC18 µElution Plate, Waters), vacuum dried, and stored at −20 °C until LC–MSMS measurement.
For the competition assays, relative binding was calculated based on the protein intensity ratio to the DMSO control for every single inhibitor concentration. EC50 values were derived from a four-parameter log-logistic regression with variable slope (constrain: bottom > 0). The obtained EC50 values were multiplied with a protein-dependent correction factor (cf), resulting in the apparent Kd value (Kd^app). The correction factor is determined by calculating the ratio of the protein intensity of two consecutive pulldowns of the vehicle control sample[13]. Targets of the inhibitors were annotated manually according to published procedures[12],[46],[47]. […] Additionally, the number of unique peptides and MSMS counts per condition were taken into account. Positive target binding across several independent experiments performed with different cell lysates further substantiated our confidence for a true positive drug-target binding event.

[3] = biological target: HDACs (HDAC1, HDAC2, HDAC6); experiment: Chemoproteomic competition pulldown assay (HDAC panel); assay type: binding
Protocol: as §1
as §2, with “The resulting peptides were desalted on a C18 filter plate (Sep-Pak® tC18 µElution Plate, Waters), vacuum dried, and stored at −20 °C until LC–MSMS measurement.” left out
For the competition assays, relative binding was calculated based on the protein intensity ratio to the DMSO control for every single inhibitor concentration. […] The correction factor is determined by calculating the ratio of the protein intensity of two consecutive pulldowns of the vehicle control sample[13]. […]

[4] = iL, SW620, read-out: pKdapp (converted)
[5] = iQ, SW620, read-out: pKdapp (converted)
[6] = iQ, SW620 lysate, log10 M -3.52288
[7] = iQ, SW620 lysate, log10 M -4.52288
[8] = iQ, SW620 lysate, log10 M -5.52288
[9] = iQ, SW620 lysate, log10 M -6.52288
[10] = iL, SW620 lysate, 1 mM DTT, range over HDAC1, HDAC2, HDAC6, read-out: affinities (Kd app)

## O=C(O)CCCCC1CCSS1 (racemic) [(R/S)-LA, (R/S)-lipoic acid]
[1]
  EC50: 22.3 µM
[2]; iL, A549, read-out: pKdapp (converted)
  Kd: 1 µM
[2]; iL, A549 lysate, log10 M -4
  relative binding vs DMSO: 0.3867
[2]; iL, A549 lysate, log10 M -4.52288
  relative binding vs DMSO: 0.2342
[2]; iL, A549 lysate, log10 M -5
  relative binding vs DMSO: 0.3145
[2]; iL, A549 lysate, log10 M -5.52288
  relative binding vs DMSO: 0.7222
[2]; iL, A549 lysate, log10 M -6
  relative binding vs DMSO: 0.7592
[2]; iL, A549 lysate, log10 M -6.52288
  relative binding vs DMSO: 1.015
[2]; iL, A549 lysate, log10 M -7.52288
  relative binding vs DMSO: 1.14
[2]; iL, A549 lysate, log10 M -8
  relative binding vs DMSO: 1.179
[2]; iL, A549 lysate, log10 M -8.52288
  relative binding vs DMSO: 1.15
[2]; [4]
  Kd: 6.31 µM
[2]; iL, SW620 lysate, log10 M -3.52288
  relative binding vs DMSO: 0.08452
[2]; iL, SW620 lysate, log10 M -4
  relative binding vs DMSO: 0.1723
[2]; iL, SW620 lysate, log10 M -4.52288
  relative binding vs DMSO: 0.723
[2]; iL, SW620 lysate, log10 M -5
  relative binding vs DMSO: 1.4202
[2]; iL, SW620 lysate, log10 M -5.52288
  relative binding vs DMSO: 0.8654
[2]; iL, SW620 lysate, log10 M -6
  relative binding vs DMSO: 1.086
[2]; iL, SW620 lysate, log10 M -6.52288
  relative binding vs DMSO: 0.8422
[2]; iL, SW620 lysate, log10 M -7
  relative binding vs DMSO: 1.138
[2]; [5]
  Kd: 31.6 µM
[2]; [6]
  relative binding vs DMSO: 0.2247
[2]; iQ, SW620 lysate, log10 M -4
  relative binding vs DMSO: 0.2743
[2]; [7]
  relative binding vs DMSO: 0.6023
[2]; iQ, SW620 lysate, log10 M -5
  relative binding vs DMSO: 0.7491
[2]; [8]
  relative binding vs DMSO: 0.82
[2]; iQ, SW620 lysate, log10 M -6
  relative binding vs DMSO: 0.8431
[2]; [9]
  relative binding vs DMSO: 0.9314
[2]; iQ, SW620 lysate, log10 M -7
  relative binding vs DMSO: 0.8052
[3]; [10]
  Kd: 3 to 33 µM
[3]; peer review response, read-out: EC50 in chemoproteomic competition assays
  EC50: 5 to 30 µM
[3]; peer review response, read-out: potency of target binding (Kd)
  Kd: 5 to 30 µM

## NC(=O)CCCCC1CCSS1 (racemic) [(R/S)-LM, (R/S)-lipoamide]
[1]
  EC50: 7.73 µM
[2]; iL, MV4-11 lysate, log10 M -3.52288
  relative binding vs DMSO: 0.0982
[2]; iL, MV4-11 lysate, log10 M -4
  relative binding vs DMSO: 0.1933
[2]; iL, MV4-11 lysate, log10 M -4.52288
  relative binding vs DMSO: 0.3304
[2]; iL, MV4-11 lysate, log10 M -5
  relative binding vs DMSO: 0.6612
[2]; iL, MV4-11 lysate, log10 M -5.52288
  relative binding vs DMSO: 0.6399
[2]; iL, MV4-11 lysate, log10 M -6
  relative binding vs DMSO: 0.7735
[2]; iL, MV4-11 lysate, log10 M -6.52288
  relative binding vs DMSO: 0.8518
[2]; iL, MV4-11 lysate, log10 M -7
  relative binding vs DMSO: 0.9297
[2]; iL, MV4-11 lysate, read-out: Kd app
  Kd: 14 µM
[2]; iL, MV411, read-out: pKdapp (converted)
  Kd: 10 µM
[2]; [4]
  Kd: 20 µM
[2]; [5]
  Kd: 20 µM
[2]; [6]
  relative binding vs DMSO: 0.1341
[2]; iQ, SW620 lysate, log10 M -4
  relative binding vs DMSO: 0.2239
[2]; [7]
  relative binding vs DMSO: 0.5192
[2]; iQ, SW620 lysate, log10 M -5
  relative binding vs DMSO: 0.7829
[2]; [8]
  relative binding vs DMSO: 0.822
[2]; iQ, SW620 lysate, log10 M -6
  relative binding vs DMSO: 0.953
[2]; [9]
  relative binding vs DMSO: 0.8561
[2]; iQ, SW620 lysate, log10 M -7
  relative binding vs DMSO: 0.9474
[3]; [10]
  Kd: 3 to 33 µM

Source: publication PMC10272112 (Nature Communications, 2023)
